Target: T1, recombinant human mPGES-1 (Homo sapiens, UniProt O14684)
T1 construct: made in house; host or cells: Rosetta E. coli (microsomal/membrane fraction)
T1 sequence (O14684 1-152): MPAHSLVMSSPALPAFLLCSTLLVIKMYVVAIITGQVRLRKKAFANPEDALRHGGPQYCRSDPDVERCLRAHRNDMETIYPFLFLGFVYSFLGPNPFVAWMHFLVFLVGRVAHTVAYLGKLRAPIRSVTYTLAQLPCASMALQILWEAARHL
Assay: mPGES-1 inhibition, HTRF detection of PGE2
Type: biochemical
Method: Microsomes from Rosetta E. coli bacteria expressing recombinant human mPGES-1 is dissolved in 0.1 M KPi pH 7.4 buffer containing 2.5 mM GSH. 50 μl of the enzyme is subsequently dispensed in a 384-well plate. 0.5 μl of the inhibitor dissolved in DMSO at is thereafter added to each well and incubated for 25 minutes at room temperature. Subsequently, 2 μl of PGH2 dissolved in an appropriate solvent is added to each well and after one minute the acidified stop solution containing FeCl2 is added. 4 μl of the total volume is transferred to a separate plate and diluted 750-fold in two separate steps before HTRF detection of PGE2.
The HTRf detection is performed by the use of a commercially available kit from CisBio essentially according to the manufacturer's protocol. Briefly, 10 μl of the diluted sample is transferred to a white 384-well plate. 5 μl of d2 and 5 μl Eu3+-Cryptate labeled anti-PGE2 is added to each well containing samples by the use of a Multidrop. The plate is covered with a plastic self-adhesive film, centrifuged at 1200 rpm for 1 minute and subsequently stored at +4° C. over night.
After over night incubation the fluorescence is measured by the use of an appropriate microplate reader. The fluorescence of europium cryptate, and d2 are measured using the following excitation and emission wavelength, europium cryptate: λmax^ex=307 nm, λmax^em=620 nm and d2: λmax^ex=620 nm, λmax^em=665 nm), respectively. The extent of the specific FRET is measured as a ratio of the emission intensity at 665 nm vs. that at 620 nm. A standard curve using synthetic PGE2 is used to quantify the amount of PGE2 in unknown samples.

| Structure (SMILES) | inhibition at 10 µM | inhibition at 1 µM |
| --- | --- | --- |
| O=C(NCC(F)(F)C(F)(F)C(F)(F)C(F)(F)F)c1cc2nc(Nc3c(Cl)cncc3Cl)[nH]c2nc1OC1CCOC1 (stereo not drawn) [Example 792, 2-(3,5-Dichloro-pyridin-4-ylamino)-5-(tetrahydrofuran-3-yl-oxy)-N-(2,2,3,3,4,4,5,5,5-nonafluoro-pentyl)-3H-imidazo[4,5-b]pyridine-6-carboxamide] | 96% | – |
| O=C(N[C@H]1CC[C@H](C(F)(F)F)CC1)c1cc2nc(Nc3c(F)cccc3C(F)(F)F)[nH]c2nc1OCC(F)F [Example 781, 2-(2-Fluoro-6-trifluoromethyl-phenylamino)-5-(2,2-difluoro-ethoxy)-N-(trans-4-trifluoromethyl-cyclohexyl)-3H-imidazo[4,5-b]pyridine-6-carboxamide] | – | 99% |
| Cn1c(Nc2c(Cl)cccc2Cl)nc2cc(C(=O)NC3CCC4(CC4)C3)cnc21 (stereo not drawn) [Example 506, 2-(2,6-Dichlorophenylamino)-3-methyl-N-(spiro[2.4]heptan-5-yl)-3H-imidazo[4,5-b]pyridine-6-carboxamide] | 100% | – |
| O=C(N[C@H]1CC[C@H](C(F)(F)F)CC1)c1cnc2[nH]c(Nc3c(Cl)cccc3Cl)nc2c1 [Example 459, 2-(2,6-Dichlorophenylamino)-N-((1r,4r)-4-trifluoromethyl-cyclohexyl)-3H-imidazo[4,5-b]pyridine-6-carboxamide] | 100% | – |
| Cn1c(Nc2c(Cl)cncc2Cl)nc2cc(C(=O)NCC(F)(F)C(F)(F)C(F)(F)C(F)(F)F)c(OCC(F)(F)F)nc21 [Example 850, 2-(3,5-Dichloro-pyridin-4-ylamino)-5-(2,2,2-trifluoro-ethoxy)-N-(2,2,3,3,4,4,5,5,5-nonafluoro-pentyl)-3-methyl-3H-imidazo[4,5-b]pyridine-6-carboxamide] | 99% | – |
| Cn1c(Nc2c(Cl)cc(F)cc2Cl)nc2cc(C(=O)NCC(F)(F)C(F)(F)C(F)(F)C(F)(F)F)c(OCC(F)(F)F)nc21 [Example 873, 2-(2,6-Dichloro-4-fluoro-phenylamino)-5-(2,2,2-trifluoro-ethoxy)-N-(2,2,3,3,4,4,5,5,5-nonafluoropentyl)-3-methyl-3H-imidazo[4,5-b]pyridine-6-carboxamide] | 100% | – |
| CC(=O)N(C)CCOc1nc2[nH]c(Nc3c(Cl)cncc3Cl)nc2cc1C(=O)NCC(F)(F)C(F)(F)C(F)(F)C(F)(F)F [Example 809, 2-(3,5-Dichloro-pyridin-4-ylamino)-5-(2-(acetyl-methyl-amino)-ethoxy)-N-(2,2,3,3,4,4,5,5,5-nonafluoro-pentyl)-3H-imidazo[4,5-b]pyridine-6-carboxamide] | 100% | – |
| CCCCCC[C@@H](C)NC(=O)c1cnc2c(c1)nc(Nc1c(Cl)cccc1Cl)n2C [Example 411, (R)-2-(2,6-Dichlorophenylamino)-3-methyl-N-(oct-2-yl)-3H-imidazo[4,5-b]pyridine-6-carboxamide] | 100% | – |
| Cn1c(Nc2c(Cl)cccc2Cl)nc2cc(C(=O)N[C@H]3CC[C@H](C)CC3)cnc21 [Example 453, 2-(2,6-Dichlorophenylamino)-3-methyl-N-((1r,4r)-4-methylcyclohexyl)-3H-imidazo[4,5-b]pyridine-6-carboxamide] | 98% | – |
| CC(C)[C@H]1CC[C@H](NC(=O)c2cnc3c(c2)nc(Nc2c(Cl)cccc2Cl)n3C)CC1 [Example 400, 2-(2,6-Dichlorophenylamino)-N-((1r,4r)-4-isopropylcyclohexyl)-3-methyl-3H-imidazo[4,5-b]pyridine-6-carboxamide] | 97% | – |

Second part, the compound after the results:

| inhibition at 10 µM | inhibition at 1 µM | Structure (SMILES) |
| --- | --- | --- |
| 100% | – | COc1nc2c(cc1C(=O)NCc1ncccc1C(F)(F)F)nc(Nc1c(Cl)cccc1Cl)n2C [Example 860, 2-(2,6-Dichloro-phenylamino)-5-methoxy-N-((3-trifluoromethyl-pyridin-2-yl)-methyl)-3-methyl-3H-imidazo[4,5-b]pyridine-6-carboxamide] |
| 96% | – | CC(=O)N(C)CCOc1nc2c(cc1C(=O)Nc1ccc(Br)cc1)nc(Nc1c(Cl)cncc1Cl)n2C [Example 810, 2-(3,5-Dichloro-pyridin-4-ylamino)-5-(2-(acetyl-methyl-amino)-ethoxy)-N-(4-bromo-phenyl)-3-methyl-3H-imidazo[4,5-b]pyridine-6-carboxamide] |
| 100% | – | Cn1c(Nc2ccccc2C(F)(F)F)nc2cc(C(=O)N[C@H]3CC[C@H](C(F)(F)F)CC3)c(OCC(F)F)nc21 [Example 782, 2-(2-Trifluoromethyl-phenylamino)-5-(2,2-difluoro-ethoxy)-N-(trans-4-trifluoromethyl-cyclohexyl)-3-methyl-3H-imidazo[4,5-b]pyridine-6-carboxamide] |
| 100% | – | O=C(NCc1ccccc1C(F)(F)F)c1cc2nc(Nc3c(Cl)cncc3Cl)[nH]c2nc1OCC(F)(F)F [Example 853, 2-(3,5-Dichloro-pyridin-4-ylamino)-5-(2,2,2-trifluoro-ethoxy)-N-(2-trifluoromethyl-benzyl)-3H-imidazo[4,5-b]pyridine-6-carboxamide] |
| 100% | – | COCCOc1nc2[nH]c(Nc3c(Cl)cc(F)cc3Cl)nc2cc1C(=O)N[C@H]1CC[C@H](C(F)(F)F)CC1 [Example 867, 2-(2,6-Dichloro-4-fluoro-phenylamino)-5-(2-methoxy-ethoxy)-N-(trans-4-trifluoromethyl-cyclohexyl)-3H-imidazo[4,5-b]pyridine-6-carboxamide] |
| 91% | – | CN(C)CCOc1nc2[nH]c(Nc3c(Cl)cc(F)cc3Cl)nc2cc1C(=O)N[C@H]1CC[C@H](C(F)(F)F)CC1 [Example 864, 2-(2,6-Dichloro-4-fluoro-phenylamino)-5-(2-dimethylamino-ethoxy)-N-(trans-4-trifluoromethyl-cyclohexyl)-3H-imidazo[4,5-b]pyridine-6-carboxamide] |
| 95% | – | Cn1c(Nc2c(Cl)cncc2Cl)nc2cc(C(=O)NCc3ncccc3C(F)(F)F)c(OCCF)nc21 [Example 835, 2-(3,5-Dichloro-pyridin-4-ylamino)-5-(2-fluoro-ethoxy)-N-((3-trifluoromethyl-pyridin-2-yl)-methyl)-3-methyl-3H-imidazo[4,5-b]pyridine-6-carboxamide] |
| 100% | – | O=C(Nc1ccc(Br)cc1)c1cc2nc(Nc3c(Cl)cc(F)cc3Cl)[nH]c2nc1OCC(F)F [Example 822, 2-(2,6-Dichloro-4-fluoro-phenylamino)-5-(2,2-difluoro-ethoxy)-N-(4-bromo-phenyl)-3H-imidazo[4,5-b]pyridine-6-carboxamide] |
| 99% | – | O=C(Nc1ccc(Br)cc1)c1cc2nc(Nc3c(Cl)cc(F)cc3Cl)[nH]c2nc1OCC(F)(F)F [Example 820, 2-(2,6-Dichloro-4-fluoro-phenylamino)-5-(2,2,2-trifluoro-ethoxy)-N-(4-bromo-phenyl)-3H-imidazo[4,5-b]pyridine-6-carboxamide] |
| 90% | – | O=C(Nc1cc(C(F)(F)F)ccn1)c1cc2nc(Nc3c(Cl)cc(F)cc3Cl)[nH]c2nc1OCC(F)F [Example 821, 2-(2,6-Dichloro-4-fluoro-phenylamino)-5-(2,2-difluoro-ethoxy)-N-(4-trifluoromethyl-pyridin-2-yl)-3H-imidazo[4,5-b]pyridine-6-carboxamide] |
| 99% | – | Cn1c(Nc2c(Cl)cc(F)cc2Cl)nc2cc(C(=O)NCc3ncccc3C(F)(F)F)c(OCC(F)(F)F)nc21 [Example 813, 2-(2,6-Dichloro-4-fluoro-phenylamino)-5-(2,2,2-trifluoro-ethoxy)-N-((3-trifluoromethyl-pyridin-2-yl)-methyl)-3-methyl-3H-imidazo[4,5-b]pyridine-6-carboxamide] |
| 99% | – | CCOc1nc2[nH]c(Nc3c(Cl)cncc3Cl)nc2cc1C(=O)NCc1ncccc1C(F)(F)F [Example 843, 2-(3,5-Dichloro-pyridin-4-ylamino)-5-ethoxy-N-((3-trifluoromethyl-pyridin-2-yl)-methyl)-3H-imidazo[4,5-b]pyridine-6-carboxamide] |
| 100% | – | Cn1c(Nc2c(Cl)cncc2Cl)nc2cc(C(=O)NCc3ncccc3C(F)(F)F)c(OC3CCOC3)nc21 (stereo not drawn) [Example 847, 2-(3,5-Dichloro-pyridin-4-ylamino)-5-(tetrahydrofuran-3-yl-oxy)-N-((3-trifluoromethyl-pyridin-2-yl)-methyl)-3-methyl-3H-imidazo[4,5-b]pyridine-6-carboxamide] |
| 98% | – | Cn1c(Nc2c(Cl)cncc2Cl)nc2cc(C(=O)NCc3ncccc3C(F)(F)F)c(OCC(F)(F)F)nc21 [Example 851, 2-(3,5-Dichloro-pyridin-4-ylamino)-5-(2,2,2-trifluoro-ethoxy)-N-((3-trifluoromethyl-pyridin-2-yl)-methyl)-3-methyl-3H-imidazo[4,5-b]pyridine-6-carboxamide] |
